# Measured values published in publication PMC3616001, “A Novel ^99mTc-Labeled Molecular Probe for Tumor Angiogenesis Imaging in Hepatoma Xenografts Model: A Pilot Study” (PLoS ONE, 2013).
# Bridges are numbered along the chain shown (N, C = ends). Where no end group is shown, it is not given here. [ ]: non-standard residue; d: D form.
# How the values were obtained:
# [1] = In vitro stability at room temperature, neat and in normal saline (radiochemical purity by paper chromatography); assay type: physicochemical; conditions: analysed at 0, 1, 2, 4 and 6 h by paper chromatography, average of 3 sampling points
# Procedure: For the quality control of labeling, a double-phase paper chromatography on Xinhua no. 1 filter paper was performed to measure labeling efficiency and radiochemical purity, with acetone and ethanol: ammonia: water (2∶1∶5) as mobile phase.
# (§1) A sample of 100 µL ^99mTc-RRL at room temperature was used to observe the in vitro stability. And the in vitro stability was also determined by incubating 100 µL ^99mTc-RRL with 900 µL of normal saline at room temperature and 900 µL of freshly collected serum at 37°C, respectively. The three aliquots were then analyzed at 0, 1, 2, 4 and 6 h by paper chromatography.
# [2] = test system: mice bearing HepG2 xenografts; parameters: species or system BALB/c nu/nu mice; conditions: mouse, in vivo
# Text: BALB/c nu/nu mice (female, 18 ± 2 g, 3- to 4-wk-old; Department of Laboratory Animal Science, Peking University First Hospital) were used in this study. The mice were inoculated with 1×10^7 HepG2 cells in the right upper limbs, and the tumors were allowed to grow to about a 1 cm diameter for largest diameter which could be measured. The mice were maintained using a standard diet, bedding and environment, with free access to food and drinking water.
# 40 BALB/c nu/nu mice with HepG2 xenografts were randomly divided into 8 groups (6 experimental groups, 1 blocking group and 1 control group) of 5 mice each. The experimental groups were treated with ^99mTc-RRL directly, and the blocking group was treated with excessive unlabeled RRL (500 µg, dissolved in 50 µL, 0.5 M, pH = 7.4 phosphate buffer) from lateral tail vein 30 minutes before injection of the radiolabeled derivative. The control group was administered with Na^99mTcO4 only.
# The radiolabeled compounds were purified and isolated from the Sephadex G25 gel-filtration column, 1,850 kBq of ^99mTc-RRL was injected into each mouse via the lateral tail vein. All injections were successful with no leakage. The animals of 6 experimental groups were sacrificed by cervical dislocation at 15 min, 30 min, 1, 2, 4 and 6 h after injection, respectively. At 6 h, the blocking and control group were also studied.
# The mice were dissected and tissues of interest (blood, heart, liver, spleen, lung, kidney, stomach, small intestine, bladder, bone, skeletal muscle and tumor) were weighed, and their radioactivity was measured using a γ-well counter, which was equipped with a NaI(Tl) crystal detector and coupled to a high gain PMT for maximum efficiency of 80%, along with a standard solution of the injection. Radioactivity results were recorded as the percentage injected activity per gram (%ID/g) of tissue corrected for background and decay.
# [3] = assay type: in vitro ADME
# Procedure: as §1, with “For the quality control of labeling, a double-phase paper chromatography on Xinhua no. 1 filter paper was performed to measure labeling efficiency and radiochemical purity, with acetone and ethanol: ammonia: water (2∶1∶5) as mobile phase. A sample” for “A sample”
# HepG2 xenografts = assay: Planar gamma imaging of tumor xenografts; assay type: in vivo, BALB/c nu/nu mice
# Procedure: 12 BALB/c nu/nu mice with HepG2 xenografts were divided into 4 groups of 3 mice each (experimental, blocking, control and micro-PET group). The tumors were about 1 cm diameter for planar gamma or micro-PET imaging.
# In experimental group, 7.4 MBq ^99mTc-RRL (100 µl, diluted with phosphate buffer, pH 7.4), which were purified and separated by Sephadex G25 gel-filtration column, were then injected into each mouse via lateral tail vein. In blocking group, 500 µg unlabeled RRL was injected 30 minutes before injection of ^99mTc-RRL. In control group, each mouse was only administered with 7.4 MBq Na^99mTcO4. All injections were successful with no leakage.
# A whole-body planar imaging was performed at 1, 2, 4 and 6 h after injection in the Department of Nuclear Medicine, Peking University First Hospital, using SPECT (SPR SPECT; GE Healthcare, Inc.) equipped with a low-energy, high-resolution, parallel-hole collimator. Planar images were acquired 200,000 counts with a zoom factor of 2.0, and were digitally stored in a 256×256 matrix size.
substance,measurement,setting,value
"G[dA]GGK[dS][dS]CGGRRLGGC-NH2 (disulfide 8-16 (inferred)) [^99mTc-RRL, cyclic (disulfide) RRL peptide radiolabeled with 99mTc by a one-step method]",Radiochemical purity over 6 hours at room temperature (RT),[1]; 100 µL sample at room temperature,more than 93%
same,Radiochemical purity over 6 hours in normal saline (NS) at RT,[1]; 100 µL with 900 µL normal saline at room temperature,more than 93%
same,Blood clearance: tracer cleared from blood,[2],more than 71.3%
same,Ratio of tumor-to-blood,[2],1.95
same,Ratio of tumor-to-liver,[2],1.98
same,Ratio of tumor-to-muscle,[2],exceeded 6.5
same,Tracer cleared from tumor,[2],less than 4.39%
same,Radiochemical purity over 6 hours in fresh 37°C serum,[3],more than 93%
same,"Tumor visualisation in planar gamma imaging, blocking group","HepG2 xenografts; 500 µg unlabeled RRL injected 30 minutes before 7.4 MBq tracer, any time after injection",not shown clearly
same,Tumor visualisation in planar gamma imaging,"HepG2 xenografts; experimental group, 7.4 MBq i.v., at 2–6 h after administration",imaged clearly
